In patent publication US8921576B2, “Spiroindoline compound, and medicinal agent comprising same” (Kowa Company, Ltd., priority 2011, dated 2014):

Tests used:
[1] = system: normal mice (C57BL/6j mice); assay: Oral glucose tolerance test after single administration of test compound in normal mice; assay type: in vivo; conditions: 30 mg/kg oral in 10% Gelucire44/14; 2 g/kg glucose oral 30 minutes later; versus solvent alone; FIG. 1
Method: FIG. 1 is a view showing the results of an oral sugar tolerance test that was carried out after completion of a single administration of the compound of Example 68, in which the 30 mg/kg compound was orally administered to normal mice, and 30 minutes later, 2 g/kg glucose was orally administered thereto, followed by confirmation of a hypoglycemic action of the compound.
The test compound (Example 68) (30 mg/kg) suspended in 10% (v/v) Gelucire44/14 (GATTEFOSSE) was orally administered to normal mice (C57BL/6j mice, CLEA Japan, Inc.). Thirty minutes later, 2 g/kg glucose was orally administered to the mice. The blood glucose level was measured using an automatic blood glucose level measurement apparatus (Medisafe, TERUMO), before administration of the test compound, 25 minutes after administration of the test compound, and 15, 30, 60, and 120 minutes after administration of glucose. Thus, the action of the test compound to lower blood glucose level was evaluated.

[2] = molecular target: T1, GST-GK derived from human liver GK (Homo sapiens, UniProt P35557); assay: In vitro GK activity measurement test (G6PDH-coupled, OD340); assay type: biochemical; conditions: test compound 1 μmol/L; glucose 2.5 mmol/L; 25° C.; OD340 slope with compound / without compound; read-out: GK activation rate (%)
T1 construct: made in house; host or cells: Escherichia coli DH5α
T1 sequence (P35557 1-466 isoform P35557-2): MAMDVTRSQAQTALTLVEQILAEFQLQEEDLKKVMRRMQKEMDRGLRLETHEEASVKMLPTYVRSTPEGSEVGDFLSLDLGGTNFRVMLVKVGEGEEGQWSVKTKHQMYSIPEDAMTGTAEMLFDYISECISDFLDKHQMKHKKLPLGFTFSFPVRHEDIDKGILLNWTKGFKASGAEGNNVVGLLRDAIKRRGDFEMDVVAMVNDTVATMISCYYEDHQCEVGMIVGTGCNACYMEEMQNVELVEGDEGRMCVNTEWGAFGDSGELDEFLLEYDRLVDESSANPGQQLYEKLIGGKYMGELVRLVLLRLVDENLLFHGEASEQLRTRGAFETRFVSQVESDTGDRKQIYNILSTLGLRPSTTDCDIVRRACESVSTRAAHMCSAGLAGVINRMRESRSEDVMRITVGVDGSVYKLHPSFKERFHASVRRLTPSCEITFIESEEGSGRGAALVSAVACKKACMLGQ
Procedure, shortened: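 GST-fused human liver glucokinase (variant 2, E. coli-expressed) at 0.1 μg/mL final, in pH 7.1 Hepes with 2.5 mmol/L glucose, 5 mmol/L ATP, NADP and G6PDH coupling, at 25° C. OD340 slope monitored over 10 min. Activation rate is slope with test compound (1 μmol/L) divided by slope without.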

Row | activity at 1 µM [2] [%] | SMILES | blood glucose level (action to lower blood glucose level) [1]
1 |  | CC(=O)N1CCC2(C1)CN(C(=O)Nc1ncc(F)s1)c1ccc(Cl)cc12 (stereo not shown) [Example 68, 1′-acetyl-5-chloro-N-(5-fluorothiazol-2-yl)spiro[indoline-3,3′-pyrrolidine]-1-carboxamide] | lower than that of the mice orally administered with the solvent alone
2 | 567 | CNC(=O)CCCSc1cnc(NC(=O)N2CC3(CCN(C(=O)OC)C3)c3cc(Cl)ccc32)s1 (stereo not shown) [Example 164, methyl 5-chloro-1-((5-((4-(methylamino)-4-oxobutyl)thio)thiazol-2-yl)carbamoyl)spiro[indoline-3,3′-pyrrolidine]-1′-carboxylate] | 
3 | 647 | COCCN(Cc1ccccc1)S(=O)(=O)c1ccc2c(c1)[C@@]1(CCN(C(=O)OC)C1)CN2C(=O)Nc1nc2ccc(OC)nc2s1 [Example 344, (S)-methyl 5-(N-benzyl-N-(2-methoxyethyl)sulfamoyl)-1-((5-methoxythiazolo[5,4-b]pyridin-2-yl)carbamoyl)spiro[indoline-3,3′-pyrrolidine]-1′-carboxylate] | 
4 | 705 | CCOC(=O)CSc1cnc(NC(=O)N2C[C@]3(CCN(C(=O)OC)C3)c3cc(Br)ccc32)s1 [Example 334, (S)-methyl 5-bromo-1-((5-((2-ethoxy-2-oxoethyl)thio)thiazol-2-yl)carbamoyl)spiro[indoline-3,3′-pyrrolidine]-1′-carboxylate] | 
